In the experiment the target is T1, Cyclophilin D (CypD; rhCypD) (Homo sapiens, UniProt P30405).
T1 construct: gene PPIF; amino acids 44 to 207 of full length human CypD, C-terminal His-tag
In words: HTRF/TR-FRET displacement of CsA-d2 from His-tagged rhCypD; also inhibits PPIase activity (IC50 […]). The format is binding. Background: Time-resolved FRET reads energy transfer from a long-lived donor to a nearby acceptor.

T1 sequence (P30405 44-207): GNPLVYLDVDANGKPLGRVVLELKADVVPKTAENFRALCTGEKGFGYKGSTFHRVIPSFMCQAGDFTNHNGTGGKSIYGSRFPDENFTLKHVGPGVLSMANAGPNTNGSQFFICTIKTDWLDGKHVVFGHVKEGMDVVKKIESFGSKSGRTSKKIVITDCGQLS

Usually IC50 stands for the concentration that gives 50% inhibition. Read a high IC50 as a need for much substance. The molecule `CC[C@H]1C[C@H](C)[C@@]2(NC1=O)O[C@@H](C[C@H](O)[C@@H](C)CC/C=C/C=C(\C)[C@@H]1C/C=C/C=C/[C@H](O)[C@H](C)[C@@H](O)[C@@H](CCC(C)=O)C(=O)N[C@@H](C(C)C)C(=O)N[C@@H](Cc3cccc(O)c3)C(=O)N3CCC[C@H](N3)C(=O)O1)[C@H](C)[C@H](O)[C@@H]2C` [SfA, sanglifehrin A] returned an IC50 of 5 nM.

The record behind these values is PMC5122887, “Identification of ER-000444793, a Cyclophilin D-independent inhibitor of mitochondrial permeability transition, using a high-throughput screen in cryopreserved mitochondria” (Scientific Reports, 2016).
